Assay results taken from ChEMBL document CHEMBL4393680, “Design, synthesis and biological evaluation of novel thioquinazolinone-based 2-aminobenzamide derivatives as potent histone deacetylase (HDAC) inhibitors” (Eur J Med Chem, 2019).
Activity calls are given as the source filed them. No cut-off for these calls is given here.

Experiments:
A549 [1] = test: Antitumor activity against human A549 cells xenografted in BALB/C mouse assessed as tumor growth inhibition at 25 mg/kg, ip bid for 21 days measured at 3 days interval during compound dosing relative to control; format: functional; details: read-out: TGI
[2] = Toxicity in BALB/C mouse xenografted with human A549 cells assessed as reduction in body weight at 25 mg/kg, ip bid for 21 days measured at 3 days interval during compound dosing; format: organism-based; details: in vivo
A549 [3] = test: Antitumor activity against human A549 cells xenografted in BALB/C mouse assessed as reduction in tumor size at 25 mg/kg, ip bid for 21 days measured at 3 days interval during compound dosing by visual analysis; format: functional, organism-based
SMMC-7721 = test: Cell cycle arrest in human SMMC7721 cells assessed as accumulation at G2/M phase incubated for 48 hrs by propidium iodide staining-based flow cytometry; format: functional

COc1ccc2c(=O)n(C)c(SCc3ccc(C(=O)Nc4ccccc4N)cc3)nc2c1
inhibition in vivo at 25 mg/kg (A549 [1]): 62.5% | Activity [2]: Non-Toxic | Activity (A549 [3]): Active | Activity (SMMC-7721): Dose-dependent effect
